Assays:
Assay type in all cases: functional
[1] = system: A2780; experiment: Resistance factor, ratio of IC50 for paclitaxel-resistant human 1A9PTX22 cells to ratio of IC50 for human A2780 cells
[2] = system: A2780; experiment: Resistance factor, ratio of IC50 for paclitaxel-resistant human 1A9PTX10 cells to ratio of IC50 for human A2780 cells
[3] = system: HeLa; experiment: Mitotic arrest in human HeLa cells assessed as apoptosis at 5 nM after 24 hrs by TUNEL assay

SMILES	Ratio IC50 [1]	Ratio IC50 [2]	Activity [3] [%]
CCC(=O)O[C@H]1C(=O)[C@@]2(C)[C@H]([C@H](OC(=O)c3cccc(OC)c3)[C@]3(O)C[C@H](OC(=O)[C@H](O)[C@H](C=C(C)C)NC(=O)OC(C)(C)C)C(C)=C1C3(C)C)[C@]1(OC(C)=O)CO[C@@H]1C[C@@H]2O	5.1	4.8	–
CCC(=O)O[C@H]1C(=O)[C@@]2(C)[C@H]([C@H](OC(=O)c3ccccc3)[C@]3(O)C[C@H](OC(=O)[C@H](O)[C@H](C=C(C)C)NC(=O)OC(C)(C)C)C(C)=C1C3(C)C)[C@]1(OC(C)=O)CO[C@@H]1C[C@@H]2O	–	–	70

Reference: ChEMBL document CHEMBL3351786, “Drug discovery targeting cell division proteins, microtubules and FtsZ” (Bioorg Med Chem, 2014)
